Like-named read-outs stand apart in the source and are kept apart here.
How the values were obtained:
[1] = test system: endothelin-1-induced increase in cytosolic calcium ion concentration, rat aortic smooth muscle A7r5 cells; test: Inhibition of the endothelin-1-induced increase in cytosolic calcium ion concentration in A7r5 cells; type: cell-based; conditions: fura-2, compound 1 min before 10^-8 M endothelin-1, read-out: IC50 (Ca^2+): inhibition of endothelin-1-induced increase in cytosolic calcium concentration
Experimental: Inhibition of the Endothelin-1-induced Increase in Cytosolic Calcium Ion Concentration
To a cuvette was put a suspension of rat aortic smooth muscle A7r5 cells (Dainippon Pharmaceutical Co., Ltd.) on which 2 μM fura-2 (Dojin) has been loaded. The change in fluorescence intensity was determined with a calcium analyzer (CAF100, Nippon Bunkou Co.). In the determination, the excitation was performed at 340 nm and 380 nm and the recording at 510 nm. The cytosolic calcium concentration was calculated according to the method of Grynkiewicz et al., J. Biol. Chem., 260., pp. 3440-3450, 1985.
The experiment was carried out by adding a compound (I) of the present invention to the cell suspension in cuvette, incubating for 1 min, adding 10^-8 M endothelin-1, and measuring the change in fluorescence intensity.

[2] = molecular target: T1, endothelin receptor (smooth muscle A7r5 cells derived from rat aorta) (Rattus norvegicus, UniProt P26684); test: Inhibitory effect on the binding of 125I-endothelin-1 to its receptor (rat aorta smooth muscle A7r5 cells); conditions: 25 pM 125I-endothelin-1, 37° C., 1 hr, read-out: IC50 binding: 50% inhibition of the specific binding of 125I-endothelin-1 to its receptor
T1 construct: Smooth muscle A7r5 cells derived from rat aorta; endogenous in cells; host or cells: A7r5 (rat aortic smooth muscle)
T1 sequence (P26684 21-426): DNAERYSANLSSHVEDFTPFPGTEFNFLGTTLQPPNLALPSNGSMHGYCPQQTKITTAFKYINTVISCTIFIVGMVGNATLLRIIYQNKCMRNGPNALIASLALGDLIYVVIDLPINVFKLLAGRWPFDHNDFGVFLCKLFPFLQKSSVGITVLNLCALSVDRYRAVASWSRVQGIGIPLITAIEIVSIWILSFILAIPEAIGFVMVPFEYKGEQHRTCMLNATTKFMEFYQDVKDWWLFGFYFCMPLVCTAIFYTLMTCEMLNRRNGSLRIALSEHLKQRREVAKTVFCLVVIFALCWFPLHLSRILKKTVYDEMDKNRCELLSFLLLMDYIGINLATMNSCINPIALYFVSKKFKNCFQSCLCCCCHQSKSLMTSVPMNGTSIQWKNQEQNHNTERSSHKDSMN
Experimental: Inhibitory Effect on the Binding of ^125 I-Endothelin-1 to its Receptor
Smooth muscle A7r5 cells derived from rat aorta were incubated with 25 pM ^125 I-endothelin-1 at 37° C. for 1 hr in the presence or absence of a compound (I) of the present invention. After completion of the reaction, ^125 I-endothelin-1 bound to membrane fraction was separated by filtrating through glass fiber filters and the radioactivity was determined with a gamma-counter. The specific binding was calculated by subtracting the nonspecific binding which was determined in the presence of 10^-7 M non-radioactive endothelin-1 from the total binding.

[3] = molecular target: T2, endothelin-1-induced contraction, isolated rat thoracic aorta (Rattus norvegicus, UniProt P26684); test: Inhibition of endothelin-1-induced contraction in isolated rat thoracic aorta; conditions: 10^-8, 3×10^-8, 10^-7 M, 10 min, 37° C.
T2 construct: specimens isolated from rat thoracic aorta; from tissue; host or cells: rat thoracic aorta, transverse strips
T2 sequence (P26684 21-426): T1 sequence (P26684 21-426)
Experimental: Inhibition of Endothelin-1-induced Contradiction in Isolated Rat Thoracic Aorta
Transverse Stip specimens isolated from rat thoracic aorta were suspended in modified Locke-Ringer solution at 37° C. while aerating with mixed gas (95% O2 +5% CO2), and the isometric tension was recorded. Four specimens derived from each rat were used in the test. Thus, three specimens were treated with compound 1c (disodium salt; prepared in Example 1 or 3) of different concentration (10^-8 M, 3×10^-8 M, and 10^-7 M) for 10 min and the rest was untreated before the measurement of isometric tension.

[4] = test system: endothelin-1-induced hypertension, pithed rat; test: Inhibition of endothelin-1-induced hypertension in pithed rat; type: in vivo; conditions: intravenous, dose between 0.01 and 1 mg/kg
Experimental: Inhibition of Endothelin-1-induced Hypertension in Pithed Rat
Under ether anesthesia, a stainless-steal rod (diameter: 2 mm) was inserted from right orbital to spinal end of a rat. The resultant pithed rat was placed under artificial respiration and the change in blood pressure was recorded. Drugs (endothelin-1 and compound 1c prepared in Example 1 or 3) were administered intravenously.

Row | SMILES | IC50 ([1]; Rattus norvegicus) | IC50 [2] | shift of endothelin-1 concentration-contraction curve [3] | Kb ([3]; read-out: pA2 value, endothelin-1 concentration-contraction curve (converted)) | IC50 [1] | decrease of blood pressure [4]
1 | CC1(C)CC[C@]2(C(=O)O)CC[C@]3(COC(=O)/C=C/c4cc(O)ccc4NC(=O)/C=C/C(=O)O)C(=CCC4[C@@]5(C)CCC(=O)C(C)(C)C5CC[C@]43C)[C@@H]2C1 (single isomer, unassigned) [Compound 1b] | 2.6 nM | 0.5 nM |  |  |  | 
2 | CC1(C)CC[C@]2(C(=O)O)CC[C@]3(COC(=O)/C=C/c4cc(O)ccc4NC(=O)/C=C/C(=O)O)C(=CCC4[C@@]5(C)CCC(=O)C(C)(C)C5CC[C@]43C)[C@@H]2C1 (single isomer, unassigned) [Compound 1c] |  | 0.7 nM | shifts the concentration-contradiction curve to right in a concentration-dependent manner | 1.58 nM | 2.6 nM | decreased the blood pressure in a dose-dependent manner
3 | CC1(C)CC[C@]2(C(=O)O)CC[C@]3(COC(=O)/C=C/c4cc(O)ccc4N)C(=CCC4[C@@]5(C)CCC(=O)C(C)(C)C5CC[C@]43C)[C@@H]2C1 (stereo partly drawn) [Compound 1a] | 4.5 nM | 24 nM |  |  |  | 
4 | CC1(C)CC[C@]2(C(=O)O)CC[C@]3(COC(=O)/C=C/c4cc(O)ccc4NC(=O)/C=C\C(=O)O)C(=CCC4[C@@]5(C)CCC(=O)C(C)(C)C5CC[C@]43C)[C@@H]2C1 (stereo partly drawn) [Compound 1d] | 3 nM | 3.4 nM |  |  |  | 
5 | CC1(C)CC[C@]2(C(=O)O)CC[C@]3(COC(=O)/C=C/c4cc(O)ccc4NC(=O)CCC(=O)O)C(=CCC4[C@@]5(C)CCC(=O)C(C)(C)C5CC[C@]43C)[C@@H]2C1 (stereo partly drawn) [Compound 1e] | 3.5 nM | 3.6 nM |  |  |  | 
6 | CC1(C)CC[C@]2(C(=O)O)CC[C@]3(COC(=O)/C=C/c4cc(O)ccc4NC(=O)C(=O)O)C(=CCC4[C@@]5(C)CCC(=O)C(C)(C)C5CC[C@]43C)[C@@H]2C1 (stereo partly drawn) [Compound 1g] | 2.5 nM | 1.8 nM |  |  |  | 
7 | CC1(C)CC[C@]2(C(=O)O)CC[C@]3(COC(=O)/C=C/c4cc(O)ccc4NC(=O)CC(=O)O)C(=CCC4[C@@]5(C)CCC(=O)C(C)(C)C5CC[C@]43C)[C@@H]2C1 (stereo partly drawn) [Compound 1h] | 5.6 nM | 9 nM |  |  |  | 
8 | CC1(C)CC[C@]2(C(=O)O)CC[C@]3(COC(=O)/C=C/c4cc(O)ccc4NC(=O)CCCC(=O)O)C(=CCC4[C@@]5(C)CCC(=O)C(C)(C)C5CC[C@]43C)[C@@H]2C1 (stereo partly drawn) [Compound 1i] | 4.6 nM | 6.6 nM |  |  |  | 
9 | CC1(C)CC[C@]2(C(=O)O)CC[C@]3(COC(=O)/C=C/c4cc(O)ccc4NS(=O)(=O)O)C(=CCC4[C@@]5(C)CCC(=O)C(C)(C)C5CC[C@]43C)[C@@H]2C1 (stereo partly drawn) [Compound 1k] | 2.8 nM | 2.9 nM |  |  |  | 
10 | COC(=O)/C=C/C(=O)Nc1ccc(O)cc1/C=C/C(=O)OC[C@@]12CC[C@@]3(C(=O)O)CCC(C)(C)C[C@H]3C1=CCC1[C@@]3(C)CCC(=O)C(C)(C)C3CC[C@]12C (stereo partly drawn) [Compound 1m] | 2.7 nM | 5 nM |  |  |  | 
11 | CC1(C)CC[C@]2(C(=O)O)CC[C@]3(COC(=O)/C=C/c4cc(O)ccc4NCC(=O)O)C(=CCC4[C@@]5(C)CCC(=O)C(C)(C)C5CC[C@]43C)[C@@H]2C1 (stereo partly drawn) [Compound 1n] | 3 nM | 3 nM |  |  |  | 
12 | CC1(C)CC[C@]2(C(=O)O)CC[C@]3(COC(=O)/C=C/c4ccc(O)c(O)c4)C(=CCC4[C@@]5(C)CCC(=O)C(C)(C)C5CC[C@]43C)[C@@H]2C1 (stereo partly drawn) [Compound 50-235, reference compound] | 10 nM | 76 nM |  |  |  | 
